Data published in patent US20200239530A1, “COMPOUNDS AND METHODS OF MODULATING PROTEIN DEGRADATION” (Vividion Therapeutics, Inc., priority 2017, published 2020).

Columns and labels:
[1] = biological target: T1, NEK9 Serine/threonine-protein kinase Nek9 (Homo sapiens, UniProt Q8TD19); assay: Cysteine liganding, probe competition; type: binding
T1 construct: Cells were resuspended in cold PBS on ice and sonicated with a probe sonicator to achieve lysis; endogenous in cells
T1 sequence (Q8TD19 1-979): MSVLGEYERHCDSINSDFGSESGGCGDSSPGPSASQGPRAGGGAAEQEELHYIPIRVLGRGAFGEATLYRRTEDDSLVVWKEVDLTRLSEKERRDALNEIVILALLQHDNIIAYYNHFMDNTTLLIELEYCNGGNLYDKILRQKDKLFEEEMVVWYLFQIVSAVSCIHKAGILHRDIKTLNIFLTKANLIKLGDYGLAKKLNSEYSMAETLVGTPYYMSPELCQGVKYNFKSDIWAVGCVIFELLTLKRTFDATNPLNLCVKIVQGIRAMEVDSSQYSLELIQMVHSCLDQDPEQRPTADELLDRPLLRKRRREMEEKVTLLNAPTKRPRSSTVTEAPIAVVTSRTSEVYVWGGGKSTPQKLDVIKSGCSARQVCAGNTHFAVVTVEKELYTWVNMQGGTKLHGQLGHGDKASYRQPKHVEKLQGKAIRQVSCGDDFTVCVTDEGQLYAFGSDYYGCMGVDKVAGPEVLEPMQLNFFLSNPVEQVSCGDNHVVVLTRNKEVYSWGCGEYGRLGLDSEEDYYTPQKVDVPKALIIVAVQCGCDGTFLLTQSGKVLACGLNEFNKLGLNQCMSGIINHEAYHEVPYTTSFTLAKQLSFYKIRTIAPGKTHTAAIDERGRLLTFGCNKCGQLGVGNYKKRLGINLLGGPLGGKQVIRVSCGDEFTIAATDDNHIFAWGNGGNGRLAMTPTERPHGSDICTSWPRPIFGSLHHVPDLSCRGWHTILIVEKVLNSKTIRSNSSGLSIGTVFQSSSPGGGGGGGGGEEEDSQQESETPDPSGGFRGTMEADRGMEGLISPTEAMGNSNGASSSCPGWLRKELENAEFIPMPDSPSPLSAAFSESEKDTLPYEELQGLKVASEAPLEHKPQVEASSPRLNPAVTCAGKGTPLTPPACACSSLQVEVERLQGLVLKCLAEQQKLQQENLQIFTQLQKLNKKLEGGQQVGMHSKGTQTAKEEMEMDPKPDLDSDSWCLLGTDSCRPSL
Method in brief: (§1)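 Steps: sonicate cells in cold PBS; treat 5 mg/ml lysate with compound (25° C, 1 hr); add desthiobiotin iodoacetamide probe from a 10 mM stock (25° C, 1 hr); precipitate, reduce, alkylate, digest with trypsin; capture labelled peptides on streptavidin for analysis.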

[2] = biological target: T2, HERC1 Probable E3 ubiquitin-protein ligase HERC1 (Homo sapiens, UniProt Q15751); assay: Cysteine liganding, probe competition; type: binding
T2 construct: Cells were resuspended in cold PBS on ice and sonicated with a probe sonicator to achieve lysis; endogenous in cells
Method in brief: as §1

T2 sequence (Q15751 whole entry): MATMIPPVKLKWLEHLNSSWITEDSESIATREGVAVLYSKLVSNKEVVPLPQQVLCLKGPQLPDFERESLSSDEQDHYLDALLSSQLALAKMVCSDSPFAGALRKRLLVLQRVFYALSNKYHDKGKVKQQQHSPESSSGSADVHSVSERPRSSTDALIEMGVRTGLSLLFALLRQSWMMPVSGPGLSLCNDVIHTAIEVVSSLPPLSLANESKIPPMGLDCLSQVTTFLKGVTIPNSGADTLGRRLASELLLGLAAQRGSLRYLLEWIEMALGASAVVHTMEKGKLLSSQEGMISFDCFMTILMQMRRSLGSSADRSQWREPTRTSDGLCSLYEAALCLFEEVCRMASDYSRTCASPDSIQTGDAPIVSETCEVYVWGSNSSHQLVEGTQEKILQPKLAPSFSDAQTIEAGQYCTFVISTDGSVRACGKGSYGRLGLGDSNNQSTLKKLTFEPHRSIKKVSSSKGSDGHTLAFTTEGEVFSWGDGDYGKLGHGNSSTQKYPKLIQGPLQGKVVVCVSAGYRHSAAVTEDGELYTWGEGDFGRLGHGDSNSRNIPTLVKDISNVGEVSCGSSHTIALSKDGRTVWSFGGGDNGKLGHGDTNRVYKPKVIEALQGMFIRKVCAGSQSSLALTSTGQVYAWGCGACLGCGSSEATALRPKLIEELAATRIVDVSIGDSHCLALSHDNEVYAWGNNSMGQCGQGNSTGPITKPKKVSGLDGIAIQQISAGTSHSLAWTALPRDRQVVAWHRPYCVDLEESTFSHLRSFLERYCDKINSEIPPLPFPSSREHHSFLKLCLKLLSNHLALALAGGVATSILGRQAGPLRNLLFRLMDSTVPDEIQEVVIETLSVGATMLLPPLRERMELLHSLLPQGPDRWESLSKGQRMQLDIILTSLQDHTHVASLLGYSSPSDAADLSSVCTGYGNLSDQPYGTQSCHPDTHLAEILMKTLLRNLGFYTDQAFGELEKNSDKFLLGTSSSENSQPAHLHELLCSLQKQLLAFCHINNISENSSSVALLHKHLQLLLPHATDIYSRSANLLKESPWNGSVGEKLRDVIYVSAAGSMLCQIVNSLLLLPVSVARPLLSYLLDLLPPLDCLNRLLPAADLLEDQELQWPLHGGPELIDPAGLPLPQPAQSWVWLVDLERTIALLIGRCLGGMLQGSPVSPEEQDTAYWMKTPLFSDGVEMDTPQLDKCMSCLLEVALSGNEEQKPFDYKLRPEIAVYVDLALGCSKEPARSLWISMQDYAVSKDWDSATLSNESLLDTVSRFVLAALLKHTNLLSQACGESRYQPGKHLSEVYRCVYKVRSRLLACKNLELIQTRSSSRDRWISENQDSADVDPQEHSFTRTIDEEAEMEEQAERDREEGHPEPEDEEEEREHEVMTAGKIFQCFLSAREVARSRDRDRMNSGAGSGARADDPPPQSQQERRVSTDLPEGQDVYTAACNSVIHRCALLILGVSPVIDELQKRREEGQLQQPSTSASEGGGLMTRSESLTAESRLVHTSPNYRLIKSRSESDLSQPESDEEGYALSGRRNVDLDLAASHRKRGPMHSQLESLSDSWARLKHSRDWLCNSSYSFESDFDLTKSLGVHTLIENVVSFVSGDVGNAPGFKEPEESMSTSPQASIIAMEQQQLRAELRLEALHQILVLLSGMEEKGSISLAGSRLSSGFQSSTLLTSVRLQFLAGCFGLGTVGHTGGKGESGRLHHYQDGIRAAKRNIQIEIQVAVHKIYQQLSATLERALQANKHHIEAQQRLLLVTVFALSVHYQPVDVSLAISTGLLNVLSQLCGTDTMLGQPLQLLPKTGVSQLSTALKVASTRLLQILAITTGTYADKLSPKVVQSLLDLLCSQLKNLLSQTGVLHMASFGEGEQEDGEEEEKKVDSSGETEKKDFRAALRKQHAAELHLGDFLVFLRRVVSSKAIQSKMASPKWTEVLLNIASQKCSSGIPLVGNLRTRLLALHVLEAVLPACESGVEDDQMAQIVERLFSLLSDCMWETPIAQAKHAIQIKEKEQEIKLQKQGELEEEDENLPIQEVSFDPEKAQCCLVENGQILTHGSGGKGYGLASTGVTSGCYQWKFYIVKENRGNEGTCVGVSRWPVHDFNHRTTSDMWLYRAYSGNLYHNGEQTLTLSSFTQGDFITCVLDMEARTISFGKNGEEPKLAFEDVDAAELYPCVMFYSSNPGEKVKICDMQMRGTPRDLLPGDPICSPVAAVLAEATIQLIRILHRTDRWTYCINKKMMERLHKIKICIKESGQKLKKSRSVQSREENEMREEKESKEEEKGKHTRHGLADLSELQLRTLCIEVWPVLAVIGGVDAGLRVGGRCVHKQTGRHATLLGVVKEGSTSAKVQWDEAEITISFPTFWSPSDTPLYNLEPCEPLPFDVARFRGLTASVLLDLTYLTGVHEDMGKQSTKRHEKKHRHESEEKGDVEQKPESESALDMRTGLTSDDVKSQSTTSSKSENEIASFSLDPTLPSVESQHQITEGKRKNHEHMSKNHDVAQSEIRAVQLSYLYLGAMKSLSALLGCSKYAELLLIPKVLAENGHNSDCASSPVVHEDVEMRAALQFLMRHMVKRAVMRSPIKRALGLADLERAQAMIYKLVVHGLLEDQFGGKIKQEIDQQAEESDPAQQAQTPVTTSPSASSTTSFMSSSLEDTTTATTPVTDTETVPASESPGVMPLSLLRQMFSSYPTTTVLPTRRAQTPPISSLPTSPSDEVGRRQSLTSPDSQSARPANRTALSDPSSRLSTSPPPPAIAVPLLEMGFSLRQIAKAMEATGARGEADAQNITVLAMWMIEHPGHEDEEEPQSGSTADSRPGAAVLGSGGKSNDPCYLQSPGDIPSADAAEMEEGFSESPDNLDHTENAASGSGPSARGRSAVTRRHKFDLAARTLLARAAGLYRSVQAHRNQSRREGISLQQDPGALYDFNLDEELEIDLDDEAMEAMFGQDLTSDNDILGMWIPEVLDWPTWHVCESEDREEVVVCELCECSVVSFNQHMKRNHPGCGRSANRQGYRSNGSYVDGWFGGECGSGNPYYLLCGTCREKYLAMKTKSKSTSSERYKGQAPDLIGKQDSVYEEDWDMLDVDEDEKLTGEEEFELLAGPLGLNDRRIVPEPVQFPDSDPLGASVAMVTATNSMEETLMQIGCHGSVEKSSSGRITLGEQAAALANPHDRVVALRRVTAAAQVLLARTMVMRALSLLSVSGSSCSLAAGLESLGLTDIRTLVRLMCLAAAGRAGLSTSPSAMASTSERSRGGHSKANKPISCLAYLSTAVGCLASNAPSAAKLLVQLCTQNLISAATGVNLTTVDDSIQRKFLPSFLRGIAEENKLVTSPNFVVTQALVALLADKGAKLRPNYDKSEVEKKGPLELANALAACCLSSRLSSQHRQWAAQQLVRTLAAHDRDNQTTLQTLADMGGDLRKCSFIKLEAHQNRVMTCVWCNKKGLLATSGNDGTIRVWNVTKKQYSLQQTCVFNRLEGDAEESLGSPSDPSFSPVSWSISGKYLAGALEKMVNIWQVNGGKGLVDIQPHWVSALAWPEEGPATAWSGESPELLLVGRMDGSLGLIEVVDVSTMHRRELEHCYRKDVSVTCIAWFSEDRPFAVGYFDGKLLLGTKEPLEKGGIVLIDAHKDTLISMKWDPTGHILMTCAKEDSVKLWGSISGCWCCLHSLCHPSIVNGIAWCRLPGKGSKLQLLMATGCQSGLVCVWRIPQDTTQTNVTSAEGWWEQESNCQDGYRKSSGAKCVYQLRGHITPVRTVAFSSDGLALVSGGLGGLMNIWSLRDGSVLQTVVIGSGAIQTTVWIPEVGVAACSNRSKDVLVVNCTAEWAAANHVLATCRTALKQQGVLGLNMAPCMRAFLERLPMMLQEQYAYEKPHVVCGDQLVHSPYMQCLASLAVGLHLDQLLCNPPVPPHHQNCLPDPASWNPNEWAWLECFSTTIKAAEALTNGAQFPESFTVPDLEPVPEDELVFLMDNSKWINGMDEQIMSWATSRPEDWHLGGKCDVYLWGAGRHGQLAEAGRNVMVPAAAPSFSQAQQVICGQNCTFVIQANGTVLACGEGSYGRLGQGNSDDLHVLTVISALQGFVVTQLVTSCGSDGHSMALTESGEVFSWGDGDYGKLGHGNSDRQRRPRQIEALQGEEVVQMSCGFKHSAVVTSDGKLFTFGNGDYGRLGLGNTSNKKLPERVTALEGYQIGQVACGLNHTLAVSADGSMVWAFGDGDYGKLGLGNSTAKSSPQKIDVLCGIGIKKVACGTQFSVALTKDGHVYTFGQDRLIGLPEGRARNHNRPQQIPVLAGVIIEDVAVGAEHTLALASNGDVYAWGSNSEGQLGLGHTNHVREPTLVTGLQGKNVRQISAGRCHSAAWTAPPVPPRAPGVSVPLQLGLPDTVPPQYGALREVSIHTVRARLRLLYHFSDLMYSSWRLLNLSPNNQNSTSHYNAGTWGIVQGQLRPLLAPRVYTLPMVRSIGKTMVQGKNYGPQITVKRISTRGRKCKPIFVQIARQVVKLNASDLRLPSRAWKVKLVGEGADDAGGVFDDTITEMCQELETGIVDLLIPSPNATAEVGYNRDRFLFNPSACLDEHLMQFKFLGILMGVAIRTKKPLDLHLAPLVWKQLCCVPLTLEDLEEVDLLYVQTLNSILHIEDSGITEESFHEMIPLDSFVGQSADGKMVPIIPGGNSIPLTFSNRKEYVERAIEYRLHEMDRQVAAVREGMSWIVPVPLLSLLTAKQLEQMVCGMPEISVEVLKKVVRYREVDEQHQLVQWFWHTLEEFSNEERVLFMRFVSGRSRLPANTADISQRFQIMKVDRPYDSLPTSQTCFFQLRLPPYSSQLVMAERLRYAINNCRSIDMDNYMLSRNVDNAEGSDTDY

| Compound | Liganded ([1]; NEK9 Res# 260, uniprot Q8TD19) | Liganded ([2]; HERC1 Res# 56, uniprot Q15751) | Liganded ([2]; HERC1 Res# 1941, uniprot Q15751) | 100 Max ([1]; uniprot Q8TD19) | 100 ave ([1]; uniprot Q8TD19) | 500 Max ([1]; uniprot Q8TD19) | 500 ave ([1]; uniprot Q8TD19) | 500 Max ([2]; uniprot Q15751) | 500 ave ([2]; uniprot Q15751) |
| --- | --- | --- | --- | --- | --- | --- | --- | --- | --- |
| COc1ccc2c(c1)CCCN2C(=O)CCl [KB02] | YES | YES | YES |  |  |  |  |  |  |
| O=C(CCl)Nc1cc(C(F)(F)F)cc(C(F)(F)F)c1 [KBO3] |  |  |  | 9.47 | 9.47 | 56.18 | 56.18 | 68.4 | 58.0 |
